{"source": "PubChem BioAssay (NCI)", "experiment_in_all_cases": "inhibition of tumour cell growth, NCI panel, 48 h", "key": {"[1]": {"system": "OVCAR-5 ovarian"}, "[2]": {"system": "SK-OV-3 ovarian"}, "[3]": {"system": "NCI-H460 lung"}, "[4]": {"system": "MDA-N"}, "[5]": {"system": "TK-10 renal"}, "[6]": {"system": "SR leukemia"}, "[7]": {"system": "SN12C renal"}, "[8]": {"system": "A549 NSCLC"}, "[9]": {"system": "DU-145 prostate"}, "[10]": {"system": "ACHN renal"}, "[11]": {"system": "HOP-62 NSCLC"}, "[12]": {"system": "EKVX NSCLC"}, "[13]": {"system": "PC-3 prostate"}, "[14]": {"system": "NCI-H522 lung"}, "[15]": {"system": "OVCAR-3 ovarian"}, "[16]": {"system": "CCRF-CEM leukemia"}, "[17]": {"system": "SW-620 colon"}, "[18]": {"system": "HT29 colon"}, "[19]": {"system": "MDA-MB-435"}, "[20]": {"system": "SF-295 CNS"}, "[21]": {"system": "SK-MEL-28 melanoma"}, "[22]": {"system": "OVCAR-4 ovarian"}, "[23]": {"system": "KM12 colon"}, "[24]": {"system": "MOLT-4 leukemia"}, "[25]": {"system": "NCI-H226 lung"}, "[26]": {"system": "T-47D breast"}, "[27]": {"system": "SF-268 CNS"}, "[28]": {"system": "HS 578T breast"}, "[29]": {"system": "CAKI-1 renal"}, "[30]": {"system": "MDA-MB-231 breast"}, "[31]": {"system": "SK-MEL-2 melanoma"}, "[32]": {"system": "M14 melanoma"}, "[33]": {"system": "BT-549 breast"}, "[34]": {"system": "COLO 205 colon"}, "[35]": {"system": "HCC-2998 colon"}, "[36]": {"system": "HCT-15 colon"}, "[37]": {"system": "SNB-19 CNS"}, "[38]": {"system": "A498 renal"}, "[39]": {"system": "RXF 393 renal"}, "[40]": {"system": "MALME-3M melanoma"}, "[41]": {"system": "SK-MEL-5 melanoma"}, "[42]": {"system": "HOP-92 NSCLC"}, "[43]": {"system": "SNB-75 CNS"}, "[44]": {"system": "MCF7 breast"}, "[45]": {"system": "786-0 renal"}, "[46]": {"system": "UO-31 renal"}, "[47]": {"system": "K-562 leukemia"}, "[48]": {"system": "IGROV1 ovarian"}, "[49]": {"system": "HCT-116 colon"}, "[50]": {"system": "U251 CNS"}, "[51]": {"system": "NCI-H23 lung"}, "[52]": {"system": "UACC-62 melanoma"}, "[53]": {"system": "UACC-257 melanoma"}, "[54]": {"system": "NCI/ADR-RES ovarian"}, "[55]": {"system": "LOX IMVI melanoma"}, "[56]": {"system": "OVCAR-8 ovarian"}}, "note": "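All cell lines were grown in 96-well plates and treated with compound for 48 hours. TGI: total growth inhibition.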"}
{"smiles": "CCCCCCCCC/C=C1\\CC(CO)(COC(=O)c2ccccc2)OC1=O", "note": "(configuration not stated)", "values": [{"measurement": "TGI", "setting": "[1]", "result": 33.2, "unit": "µM"}, {"measurement": "TGI", "setting": "[2]", "result": 43.3, "unit": "µM"}, {"measurement": "TGI", "setting": "[3]", "result": 47.6, "unit": "µM"}, {"measurement": "TGI", "setting": "[4]", "result": 43.1, "unit": "µM"}, {"measurement": "TGI", "setting": "[5]", "result": 44.4, "unit": "µM"}, {"measurement": "TGI", "setting": "[6]", "result": "> 100", "unit": "µM"}, {"measurement": "TGI", "setting": "[7]", "result": 49.7, "unit": "µM"}, {"measurement": "TGI", "setting": "[8]", "result": 52.9, "unit": "µM"}, {"measurement": "TGI", "setting": "[9]", "result": "> 100", "unit": "µM"}, {"measurement": "TGI", "setting": "[10]", "result": "> 100", "unit": "µM"}, {"measurement": "TGI", "setting": "[11]", "result": 29.8, "unit": "µM"}, {"measurement": "TGI", "setting": "[12]", "result": 34, "unit": "µM"}, {"measurement": "TGI", "setting": "[13]", "result": 34.7, "unit": "µM"}, {"measurement": "TGI", "setting": "[14]", "result": 33.4, "unit": "µM"}, {"measurement": "TGI", "setting": "[15]", "result": 43.1, "unit": "µM"}, {"measurement": "TGI", "setting": "[16]", "result": "> 100", "unit": "µM"}, {"measurement": "TGI", "setting": "[17]", "result": 34.2, "unit": "µM"}, {"measurement": "TGI", "setting": "[18]", "result": 35.3, "unit": "µM"}, {"measurement": "TGI", "setting": "[19]", "result": 36.3, "unit": "µM"}, {"measurement": "TGI", "setting": "[20]", "result": 39, "unit": "µM"}, {"measurement": "TGI", "setting": "[21]", "result": 31.8, "unit": "µM"}, {"measurement": "TGI", "setting": "[22]", "result": "> 100", "unit": "µM"}, {"measurement": "TGI", "setting": "[23]", "result": 57.2, "unit": "µM"}, {"measurement": "TGI", "setting": "[24]", "result": "> 100", "unit": "µM"}, {"measurement": "TGI", "setting": "[25]", "result": 57.9, "unit": "µM"}, {"measurement": "TGI", "setting": "[26]", "result": 72.6, "unit": "µM"}, {"measurement": "TGI", "setting": "[27]", "result": 54, "unit": "µM"}, {"measurement": "TGI", "setting": "[28]", "result": 40.2, "unit": "µM"}, {"measurement": "TGI", "setting": "[29]", "result": 52.5, "unit": "µM"}, {"measurement": "TGI", "setting": "[30]", "result": 40.4, "unit": "µM"}, {"measurement": "TGI", "setting": "[31]", "result": "> 100", "unit": "µM"}, {"measurement": "TGI", "setting": "[32]", "result": 36.6, "unit": "µM"}, {"measurement": "TGI", "setting": "[33]", "result": 52.1, "unit": "µM"}, {"measurement": "TGI", "setting": "[34]", "result": 33, "unit": "µM"}, {"measurement": "TGI", "setting": "[35]", "result": 39.3, "unit": "µM"}, {"measurement": "TGI", "setting": "[36]", "result": 35.5, "unit": "µM"}, {"measurement": "TGI", "setting": "[37]", "result": 40.2, "unit": "µM"}, {"measurement": "TGI", "setting": "[38]", "result": 58.3, "unit": "µM"}, {"measurement": "TGI", "setting": "[39]", "result": 47.4, "unit": "µM"}, {"measurement": "TGI", "setting": "[40]", "result": 39.5, "unit": "µM"}, {"measurement": "TGI", "setting": "[41]", "result": 28.6, "unit": "µM"}, {"measurement": "TGI", "setting": "[42]", "result": 30.4, "unit": "µM"}, {"measurement": "TGI", "setting": "[43]", "result": 38.3, "unit": "µM"}, {"measurement": "TGI", "setting": "[44]", "result": 48.9, "unit": "µM"}, {"measurement": "TGI", "setting": "[45]", "result": 39.8, "unit": "µM"}, {"measurement": "TGI", "setting": "[46]", "result": 32.8, "unit": "µM"}, {"measurement": "TGI", "setting": "[47]", "result": "> 100", "unit": "µM"}, {"measurement": "TGI", "setting": "[48]", "result": 70.4, "unit": "µM"}, {"measurement": "TGI", "setting": "[49]", "result": 52.8, "unit": "µM"}, {"measurement": "TGI", "setting": "[50]", "result": 39.5, "unit": "µM"}, {"measurement": "TGI", "setting": "[51]", "result": 41.9, "unit": "µM"}, {"measurement": "TGI", "setting": "[52]", "result": 79.4, "unit": "µM"}, {"measurement": "TGI", "setting": "[53]", "result": 79.9, "unit": "µM"}, {"measurement": "TGI", "setting": "[54]", "result": 51.9, "unit": "µM"}]}
{"smiles": "CN1CC2CC(C1)c1cccc(=O)n1C2", "note": "(configuration not stated)", "values": [{"measurement": "TGI", "setting": "[1]", "result": "> 100", "unit": "µM"}, {"measurement": "TGI", "setting": "[2]", "result": "> 100", "unit": "µM"}, {"measurement": "TGI", "setting": "[3]", "result": "> 100", "unit": "µM"}, {"measurement": "TGI", "setting": "[4]", "result": "> 100", "unit": "µM"}, {"measurement": "TGI", "setting": "[5]", "result": "> 100", "unit": "µM"}, {"measurement": "TGI", "setting": "[7]", "result": "> 100", "unit": "µM"}, {"measurement": "TGI", "setting": "[8]", "result": "> 100", "unit": "µM"}, {"measurement": "TGI", "setting": "[9]", "result": "> 100", "unit": "µM"}, {"measurement": "TGI", "setting": "[10]", "result": "> 100", "unit": "µM"}, {"measurement": "TGI", "setting": "[11]", "result": "> 100", "unit": "µM"}, {"measurement": "TGI", "setting": "[12]", "result": "> 100", "unit": "µM"}, {"measurement": "TGI", "setting": "[13]", "result": "> 100", "unit": "µM"}, {"measurement": "TGI", "setting": "[14]", "result": "> 100", "unit": "µM"}, {"measurement": "TGI", "setting": "[55]", "result": "> 100", "unit": "µM"}, {"measurement": "TGI", "setting": "[15]", "result": "> 100", "unit": "µM"}, {"measurement": "TGI", "setting": "[18]", "result": "> 100", "unit": "µM"}, {"measurement": "TGI", "setting": "[19]", "result": "> 100", "unit": "µM"}, {"measurement": "TGI", "setting": "[20]", "result": "> 100", "unit": "µM"}, {"measurement": "TGI", "setting": "[22]", "result": "> 100", "unit": "µM"}, {"measurement": "TGI", "setting": "[23]", "result": "> 100", "unit": "µM"}, {"measurement": "TGI", "setting": "[26]", "result": "> 100", "unit": "µM"}, {"measurement": "TGI", "setting": "[27]", "result": "> 100", "unit": "µM"}, {"measurement": "TGI", "setting": "[28]", "result": "> 100", "unit": "µM"}, {"measurement": "TGI", "setting": "[29]", "result": "> 100", "unit": "µM"}, {"measurement": "TGI", "setting": "[30]", "result": "> 100", "unit": "µM"}, {"measurement": "TGI", "setting": "[31]", "result": "> 100", "unit": "µM"}, {"measurement": "TGI", "setting": "[32]", "result": "> 100", "unit": "µM"}, {"measurement": "TGI", "setting": "[33]", "result": "> 100", "unit": "µM"}, {"measurement": "TGI", "setting": "[34]", "result": "> 100", "unit": "µM"}, {"measurement": "TGI", "setting": "[35]", "result": "> 100", "unit": "µM"}, {"measurement": "TGI", "setting": "[36]", "result": "> 100", "unit": "µM"}, {"measurement": "TGI", "setting": "[37]", "result": "> 100", "unit": "µM"}, {"measurement": "TGI", "setting": "[39]", "result": "> 100", "unit": "µM"}, {"measurement": "TGI", "setting": "[40]", "result": "> 100", "unit": "µM"}, {"measurement": "TGI", "setting": "[41]", "result": "> 100", "unit": "µM"}, {"measurement": "TGI", "setting": "[42]", "result": "> 100", "unit": "µM"}, {"measurement": "TGI", "setting": "[43]", "result": "> 100", "unit": "µM"}, {"measurement": "TGI", "setting": "[44]", "result": "> 100", "unit": "µM"}, {"measurement": "TGI", "setting": "[45]", "result": "> 100", "unit": "µM"}, {"measurement": "TGI", "setting": "[46]", "result": "> 100", "unit": "µM"}, {"measurement": "TGI", "setting": "[48]", "result": "> 100", "unit": "µM"}, {"measurement": "TGI", "setting": "[49]", "result": "> 100", "unit": "µM"}, {"measurement": "TGI", "setting": "[50]", "result": "> 100", "unit": "µM"}, {"measurement": "TGI", "setting": "[51]", "result": "> 100", "unit": "µM"}, {"measurement": "TGI", "setting": "[52]", "result": "> 100", "unit": "µM"}, {"measurement": "TGI", "setting": "[56]", "result": "> 100", "unit": "µM"}, {"measurement": "TGI", "setting": "[53]", "result": "> 100", "unit": "µM"}, {"measurement": "TGI", "setting": "[54]", "result": "> 100", "unit": "µM"}]}
